Reference: patent US12396977B2, “Composition for treating degenerative brain diseases, containing 2-pentylfuran as active ingredient” (DAEGU GYEONGBUK INSTITUTE OF SCIENCE AND TECHNOLOGY, priority 2019, dated 2025)

Legend:
primary microglia [1] = test: Cytokine mRNA (qRT-PCR) and protein (ELISA) in microglia; type: cell-based, mouse; conditions: then 2-PF
Method: In the present example, microglia or astrocytes were primarily extracted from the cerebral cortex of E18.5 mouse embryos (Tamashiro et al., 2012) and then cultured as in Example 1. More specifically, the cortex of mouse embryos was collected and then stored in a cold supernatant (#14170-112; Thermo Fisher Scientific) and pretreated at 37° C. in a 0.25% trypsin solution (#15090-046; Thermo Fisher Scientific) for 20 minutes. Then, cells were plated in a minimal nutrient medium supplemented with 10% FBS (#SH30919.03; Hyclone), 2 mM L-glutamine (#25030-081; Thermo Fisher Scientific), 0.04% glucose (#G7021; Sigma Aldrich), and 1% penicillin/streptomycin (#15140-122; Thermo Fisher Scientific), and then filtered using a 40 μm strainer (#352340; Thermo Fisher Scientific). Microglia were plated at a density of 1.2×10^7 cells in a T75 flask coated with poly-D-lysine (#P7280; Sigma Aldrich). After 2 hours, the mixture was transferred to a Dulbecco's modified eagle medium (DMEM; #SH30243.01; Hyclone), and the medium was replaced every 3 days for 2 weeks. In order to separate the microglia from this mixed solution, first, the mixed solution was shaken at 37° C. at 150 rpm for 2 hours, then the mixed solution containing microglia was separately extracted from the top and transferred, and then the microglia were isolated by centrifugation at 1300 rpm at room temperature for 5 minutes. The isolated microglia were transferred to a culture medium. After the microglia were transferred, the microglia were completely removed by shaking the remaining mixed solution at 160 rpm for 1 day for culturing. Then, astrocytes were isolated by treatment with 0.25% trypsin and again cultured in a T75 flask for 4 days for collection. The purity of the collected microglia and astrocytes was evaluated by qRT-PCR analysis and by immunocytochemistry using Iba-1 and Gfap, which are a marker gene and a protein, respectively.
For the measurement of mRNA, RNA was isolated from red blood cells, microglia, astrocytes, Hana3A cells, or cerebral cortical cells using the MagNa Lyser (Roche Molecular Diagnostics) using TRIzol reagent (Invitrogen, Carlsbad, CA.) according to the manufacturer's protocol. Then, cDNA was generated through reverse transcription using the isolated mRNA (using PrimeScript™ 1st str and cDNA Synthesis kit—#6110; Takara Bio Inc). This process was quantitatively measured in real time through quantitative real-time-PCR (using LightCycler® 480 SYBR Green I Master). The measured values were calculated using the 2-ΔΔCt method.
The expression levels of Tnf, il6, and Il1b cytokines secreted from microglia were measured according to the manufacturer's protocol. More specifically, the expression levels were measured by ELISA 24 hours after treatment with 2-PF or a cell supernatant. […]

primary microglia [2] = test: Western blot of phosphorylated signalling proteins in primary microglia; type: cell-based, mouse; conditions: inhibitor pre-culture, then 2-PF
Method: Cells and tissues were prepared using the T-PER® reagent (#78510; Thermo Fisher Scientific) with protease inhibitors (#04-693-116-001; Roche Molecular Diagnostics), DMSF (Sigma-Aldrich) and lysed using the MagNA Lyser (Roche Molecular Diagnostics). A total protein extract was quantified by the Bradford assay. The sample was dissolved in 7.5% SDS-PAGE or 4 to 20% gradient mini-PROTEIN TGX Precast Gels (#456-1064; Bio-Rad Laboratories), and then blotted onto nitrocellulose membranes (#10600002; GE Healthcare). The membrane was then blocked in 5% skimmed milk powder, TBST, 0.1% TWEEN® 20 (#P9416; Sigma-Aldrich) and Tris-buffered saline for 1 hour, and then incubated with primary antibodies at 4° C. overnight. The antibodies are as follows: Olfr110 (36 kDa; 1:1,000; #ab177327; Abcam), anti rhodopsin (39 kDa; 1:1,000; #MABN15; Millipore), CREB (43 kDa; 1:1,000; #9197; Cell Signaling Technology), phospho-CREB (43 kDa; 1:1,000; #9198; Cell Signaling Technology), ERK (44 kDa; 1:1,000; #sc094; Santa Cruz), phospho-ERK (42, 44 kDa; 1:1,000; #sc-7383; Santa Cruz), phospho-Akt (60 kDa; 1:500; sc-293125; Santa Cruz), phospho-JNK (46, 54 kDa; 1:500; sc-6254; Santa Cruz), phosphor-p38 (38 kDa; 1:1,000; sc-7973; Santa Cruz), or beta-Actin (45 kDa; 1:10,000; #4967; Cell Signaling Technology). Furthermore, an isotype-matched horseradish peroxidase-conjugated secondary antibody was used at 1:100,000 with anti-rabbit in TBST (#711-035-152; Jackson ImmunoResearch) and 1:40,000 with anti-mouse (#715-035-150; Jackson ImmunoResearch) at room temperature for 2 hours. As an immunoreactive protein band, SuperSignal™ West Pico Chemiluminescent Substrate (#34080; Thermo Fisher Scientific) was used.

Olfr110 = molecular target: T1, Olfr110 (Mus musculus, UniProt A2RT31); test: Luciferase assay in Hana3A cells, Olfr110; type: cell-based; conditions: for reactivity of Olfr110 (relative luciferase activity): Hana3A cells
T1 construct: Full-length odorant receptor genes from mouse and human genomic DNA were amplified using appropriate primers; Lucy (N); Flag (N); Rho (N); expressed in transfected cells; host or cells: Hana3A cells, co-transfected with RTP1S, pCRELuc and pRL-SV40
T1 sequence (A2RT31 1-317): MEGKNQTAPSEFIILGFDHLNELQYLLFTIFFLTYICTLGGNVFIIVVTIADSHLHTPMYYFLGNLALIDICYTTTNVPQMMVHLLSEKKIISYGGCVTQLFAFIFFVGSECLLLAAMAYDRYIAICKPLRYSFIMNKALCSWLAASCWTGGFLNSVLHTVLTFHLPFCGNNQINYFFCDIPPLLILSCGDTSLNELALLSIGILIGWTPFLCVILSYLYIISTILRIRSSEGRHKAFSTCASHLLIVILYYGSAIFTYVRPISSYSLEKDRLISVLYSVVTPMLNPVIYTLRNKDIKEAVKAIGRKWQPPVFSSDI
Method: (§1) Next, Hana3A cells were transfected with RTP1S, and their location and presence on the cell membrane were confirmed as previously described (Behrens et al., 2009; Zhuang and Matsunami, 2008). Such transfection was performed using Lipofectamine 2000 (#11668-019; Thermo Fisher Scientific) according to the manufacturer's instructions. More specifically, the transfected cells were grown on a coverslip (#0101050; Marienfeld) coated with poly D lysine (10 μg/ml; #P7280; Sigma Aldrich). Next, the cells were washed with a warm PBS solution and cooled with ice for 30 minutes to block endocytosis. […] The cells were then incubated with normal horse serum (#008-000-121; Jackson ImmunoResearch) at room temperature for 1 hour. […] After being washed with PBS, the cells were treated with a Cy3-conjugated donkey anti-mouse antibody (1:1,000; #715-165-150; Jackson ImmunoResearch), an Alexa488-conjugated donkey anti-mouse antibody (1:1,000; #715-545-150; Jackson ImmunoResearch), or a Cy3-conjugated donkey anti-rabbit antibody (1:1,000; #711-165-152; Jackson ImmunoResearch) at room temperature for 1 hour. The cells were mounted with a Vectashield fluorescent mounting medium containing DAPI (#H-1200; Vector Laboratories). The expression of heterologous odorant receptors was analyzed with a confocal laser scanning microscope LSM700 and ZEN software (Zeiss).
(§2) The Dual-Glo luciferase assay system (#E2940; Promega) was used for odorant receptor ligand screening. More specifically, Hana3A cells were streaked and spread on a white polystyrene 96-well plate (#353296; BD Biosciences) one day before transfection. pCRELuc (1 μg; #219076; Agilent Technologies), pRL-SV40 (1 μg; #E2231; Promega), RTP1S (1 μg), and OR (6 μg; or Mock) vectors were transfected for 24 hours in each plate. Each plate was analyzed using Lipofectamine 2000 (#11668-019; Thermo Fisher Scientific) according to the manufacturer's protocol. Transfected cells were stimulated in CD293 medium (#11913-019; Thermo Fisher Scientific) at 37° C. for 4 hours using diluted odorants at various concentrations. The activity of luciferase was normalized by the activity of Renilla luciferase. The amount of light emitted was measured using a SpectraMax L microplate reader (Molecular Devices).

primary microglia [3] = test: Active oxygen (ROS) production in primary microglia; type: cell-based, mouse; conditions: for ROS (active oxygen) generation induced by 2-PF after inhibitor pretreatment: then 2-PF
Method: Superoxide concentrations were calculated by measuring the degree of decrease in cytochrome c using a VersaMax microplate reader (Babior et al., 1973). Microglia were cultured on a 96-well plate at a concentration of 1.0×10^5 cells/well, and the microglia were activated by a 10 μM ATP solution containing 2-pentylfuran and cytochrome c, or a solution of Sup mixed with cytochalasin B (5 μM; #C66762; Sigma Aldrich). The resulting ROS concentration was measured by changes in light absorption at 550 nm at intervals of 1 minute for 25 minutes.
Active oxygen levels were measured using 2′,7′-dichlorodihydrofluorescein diacetate (DCF-DA, #D6883; Sigma Aldrich) using a method that had undergone minor modifications from the existing method. (Bae et al., 2001). More specifically, the primary microglia were treated with 10 μM DCF-DA in a 24-well plate (5.0×10^5 cells/well) […] at a temperature of 37° C. for 30 minutes. One plate was treated with 2-PF and one was not. Cells in each well were measured by a flow cytometer (FACS Accuri™ C6; BD Biosciences). MFI was measured in the same manner as described above.

Olfr111 = test: Luciferase assay in Hana3A cells, Olfr111; type: cell-based, mouse; conditions: for reactivity of Olfr111 (relative luciferase activity): Hana3A cells
Method: as §1, §2

[4] = tested on: Olfr920, Olfr1417, and Olfr99; conditions: Hana3A cells; MOCK also responded
Method: Next, Hana3A cells were transfected with RTP1S, and their location and presence on the cell membrane were confirmed as previously described (Behrens et al., 2009; Zhuang and Matsunami, 2008). Such transfection was performed using Lipofectamine 2000 (#11668-019; Thermo Fisher Scientific) according to the manufacturer's instructions. More specifically, the transfected cells were grown on a coverslip (#0101050; Marienfeld) coated with poly D lysine (10 μg/ml; #P7280; Sigma Aldrich). Next, the cells were washed with a warm PBS solution and cooled with ice for 30 minutes to block endocytosis. […] The cells were then incubated with normal horse serum (#008-000-121; Jackson ImmunoResearch) at room temperature for 1 hour. The resulting cells were incubated with mouse anti rhodopsin (anti-Rho; 1:1,000; #MABN15; Millipore) or rabbit anti Olfr110 (#ab177327; Abcam) at 4° C. overnight. […] The expression of heterologous odorant receptors was analyzed with a confocal laser scanning microscope LSM700 and ZEN software (Zeiss). […] Each plate was analyzed using Lipofectamine 2000 (#11668-019; Thermo Fisher Scientific) according to the manufacturer's protocol. […] The amount of light emitted was measured using a SpectraMax L microplate reader (Molecular Devices).

Q: `Nc1ncnc2c1ncn2C1CCCO1` (stereo not drawn) [SQ22536] was tested. Which “Tnf and Il6 cytokine levels induced by 2-PF after inhibitor pretreatment” value (primary microglia [1]) did it give?
A: great decrease

Q: And the “CREB and ERK phosphorylation after inhibitor pre-culture and 2-PF” value (primary microglia [2])?
A: greatly decreased

Q: For `CCc1ccco1` [2-EF, 2-ethylfuran], which “binding to Olfr110” value (Olfr110) is on record?
A: do not bind

Q: And the “mode of action at Olfr110” value (Olfr110)?
A: competitive inhibitor (antagonist)

Q: And the “active oxygen produced by Sup MOI of 100” value (primary microglia [3]; 2-EF pretreated at 0, 100, 300, 500 μM)?
A: decreased as the concentration of 2-EF increased

Q: And the “active oxygen produced by Sup MOI 5 plus 500 μM 2-PF” value (primary microglia [3]; 2-ethylfuran 0, 100, 300, 500 μM simultaneously)?
A: the higher the concentration of 2-EF added, the lower the concentration of active oxygen produced

Q: And the “binding to Olfr111” value (Olfr111)?
A: do not bind

Q: With `COc1cccc(-c2cc(=O)c3ccccc3o2)c1N` [pd98059] as the compound, how does the “Tnf and Il6 cytokine levels induced by 2-PF after inhibitor pretreatment” value (primary microglia [1]) read?
A: relatively less decrease

Q: What about the “CREB and ERK phosphorylation after inhibitor pre-culture and 2-PF” value (primary microglia [2]) of the same compound?
A: greatly decreased

Q: For `O=S(=O)(NCCNC/C=C/c1ccc(Br)cc1)c1cccc2cnccc12` [H-89], which “Tnf and Il6 cytokine levels induced by 2-PF after inhibitor pretreatment” value (primary microglia [1]) is on record?
A: great decrease

Q: For `CCCCCCCc1ccco1` [2-heptylfuran], which “binding to Olfr110” value (Olfr110) is on record?
A: do not bind

Q: What about the “binding to Olfr111” value (Olfr111) of the same compound?
A: do not bind

Q: Which “Tnf and Il6 cytokine levels induced by 2-PF after inhibitor pretreatment” value (primary microglia [1]) does the source give for `COc1ccc2c(c1)CC[C@@H]1[C@@H]2CC[C@]2(C)[C@@H](NCCCCCCN3C(=O)C=CC3=O)CC[C@@H]12` [U73122] here?
A: relatively less decrease

Q: And the “ROS (active oxygen) generation induced by 2-PF after inhibitor pretreatment” value (primary microglia [3])?
A: completely inhibited

Q: What does the source list for `CCCCc1ccco1` [2-butylfuran]?
A: reactivity of Olfr110 (relative luciferase activity) (Olfr110): showed reactivity; reactivity of Olfr111 (relative luciferase activity) (Olfr111): showed reactivity

Q: `Cc1ccco1` [2-methylfuran] was tested. Which “binding to Olfr110” value (Olfr110) did it give?
A: do not bind

Q: And the “binding to Olfr111” value (Olfr111)?
A: do not bind

Q: With `CCO` [ethanol] as the compound, how does the “reactivity of the remaining three receptors (luciferase)” value [4] read?
A: non-specific reaction

Q: How did the “ROS (active oxygen) generation induced by 2-PF after inhibitor pretreatment” value (primary microglia [3]) turn out when `O=C1OC2(c3ccccc31)c1ccc(O)c(O)c1Oc1c2ccc(O)c1O` [gallein] was run?
A: similarly inhibited

Q: `CCCc1ccco1` [2-propylfuran] was tested. Which “reactivity of Olfr110 (relative luciferase activity)” value (Olfr110) did it give?
A: showed reactivity

Q: And the “reactivity of Olfr111 (relative luciferase activity)” value (Olfr111)?
A: showed reactivity

Q: With `CC(C)(C)c1ccco1` [2-t-butylfuran] as the compound, how does the “reactivity of Olfr110 (relative luciferase activity)” value (Olfr110) read?
A: showed reactivity

Q: And the “reactivity of Olfr111 (relative luciferase activity)” value (Olfr111)?
A: showed reactivity

Q: `Cc1ccoc1C` [2,3-dimethylfuran] was tested. Which “binding to Olfr110” value (Olfr110) did it give?
A: do not bind

Q: And the “binding to Olfr111” value (Olfr111)?
A: do not bind

Q: With `CCCCCCc1ccco1` [2-hexylfuran] as the compound, how does the “binding to Olfr110” value (Olfr110) read?
A: do not bind

Q: What about the “reactivity of Olfr110 (relative luciferase activity)” value (Olfr110) of the same compound?
A: showed reactivity

Q: What about the “binding to Olfr111” value (Olfr111) of the same compound?
A: do not bind

Q: What about the “reactivity of Olfr111 (relative luciferase activity)” value (Olfr111) of the same compound?
A: showed reactivity
